US11214578B2, “Urea/carbamates FAAH MAGL or dual FAAH/MAGL inhibitors and uses thereof” (Northeastern University, priority 2014, dated 2022)

Legend:
Type in all cases: biochemical
Human MAGL (hMAGL) = molecular target: T1, Human MAGL (hMAGL) (Homo sapiens, UniProt Q99685); assay: Fluorescent assay protocol for hMAGL (AHMMCE substrate); settings: recombinant human MAGL, AHMMCE substrate, 15 min preincubation; read-out: IC50 hMAGL
T1 construct: hexahistidine; made in house; host or cells: E. coli
T1 sequence (Q99685 1-303): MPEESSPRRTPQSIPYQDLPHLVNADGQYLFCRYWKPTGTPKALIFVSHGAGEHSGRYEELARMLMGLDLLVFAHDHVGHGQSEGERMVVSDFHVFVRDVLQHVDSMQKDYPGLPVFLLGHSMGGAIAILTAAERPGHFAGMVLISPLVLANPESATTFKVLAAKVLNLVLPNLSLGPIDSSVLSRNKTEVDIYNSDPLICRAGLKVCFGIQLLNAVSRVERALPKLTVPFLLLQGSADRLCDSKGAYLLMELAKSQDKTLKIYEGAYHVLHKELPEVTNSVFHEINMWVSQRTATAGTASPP
Protocol: (§1) This medium throughput assay involved a 96-well plate format in which hMAGL activity was monitored by the hydrolysis of the substrate 7-hydroxy-6-methoxy-4-methylcoumarin ester (AHMMCE) to form the fluorescent product, coumarin. […] Upon the addition of AHMMCE, the reaction was incubated at 25° C. for 120 min; fluorescence readings were taken every 15 min at 360 nm/460 nm (λexcitation/λemission) using a Synergy HT Plate Reader (Bio-Tek, Winooski, Vt.). […] External standards were used to convert relative fluorescence units to the amount of 4-methylcoumarin formed. All MAGL assays were performed in triplicate for each inhibitor concentration, and IC50 values were calculated using Prizm software (GraphPad Software, Inc., San Diego, Calif.).

Human FAAH (MBPΔTMhFAAH) = molecular target: T2, Human FAAH (MBPΔTMhFAAH) (Homo sapiens, UniProt O00519); assay: Fluorescent assay protocol for hFAAH; settings: human FAAH (MBP fusion, ΔTM), procedure as for rFAAH
T2 construct: made in house; host or cells: E. coli (pMALcE4 vector)
T2 sequence (O00519 30-579 limits assumed): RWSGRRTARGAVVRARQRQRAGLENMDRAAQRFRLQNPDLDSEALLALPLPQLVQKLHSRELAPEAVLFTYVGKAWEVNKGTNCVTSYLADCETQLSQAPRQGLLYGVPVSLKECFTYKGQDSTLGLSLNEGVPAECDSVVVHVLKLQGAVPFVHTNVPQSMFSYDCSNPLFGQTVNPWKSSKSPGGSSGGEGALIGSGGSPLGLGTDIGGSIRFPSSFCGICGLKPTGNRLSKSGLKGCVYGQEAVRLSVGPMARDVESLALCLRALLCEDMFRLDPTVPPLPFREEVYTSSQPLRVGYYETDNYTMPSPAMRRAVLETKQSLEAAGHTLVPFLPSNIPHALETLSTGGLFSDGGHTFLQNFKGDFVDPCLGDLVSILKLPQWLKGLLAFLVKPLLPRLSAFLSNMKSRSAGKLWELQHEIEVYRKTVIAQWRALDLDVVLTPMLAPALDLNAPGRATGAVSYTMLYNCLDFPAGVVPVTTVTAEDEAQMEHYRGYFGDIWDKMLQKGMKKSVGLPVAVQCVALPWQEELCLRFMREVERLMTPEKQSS
Protocol: Human FAAH without putative transmembrane domain following maltose binding protein was expressed in E. coli cells using pMALcE4 vector Alapafuja et al J. Med. Chem. (2012) 55: 10074-89.
Procedure was followed as described for hMAGL, except that arachidonoyl-methyl coumarin amide (AAMCA) was used as fluorigenic substrate. Compounds were diluted in 50:50 DMSO/assay buffer (50 mM HEPES, 1 mM EDTA, 0.1% BSA, pH 7.4) so as to have a final DMSO concentration below 8% in each reaction. For the screening assay, 3 concentrations (1 μM, 10 μM, and 100 μM) of test compounds, 15 μg of ΔTM rFAAH and assay buffer were pre-incubated for 15 min at 25° C. AAMCA (20 μM, 2×Km) was added prior to incubation at 25° C. and kinetic fluorescence reading every 20 minutes (λex=360/λem=460) for 4 hours on a BioTek Synergy HT Microplate Reader (BioTek Instruments, Winooski, Vt.). The fluorescence reading at the 3 hour time point (linear enzyme kinetics) was used to calculate percent inhibition based on control assays without inhibitor present. All FAAH assays were performed in triplicate for each inhibitor concentration, and IC50 values determined using Prizm software (GraphPad Software, Inc.).
Procedure was followed as described for rFAAH.

Rat MAGL (rMAGL) = molecular target: T3, Rat MAGL (rMAGL) (Rattus norvegicus, UniProt Q8R431); assay: Fluorescent assay protocol for rMAGL; settings: recombinant rat MAGL, procedure as for hMAGL; read-out: IC50 rMAGL
T3 construct: made in house; host or cells: E. coli
T3 sequence (Q8R431 1-303): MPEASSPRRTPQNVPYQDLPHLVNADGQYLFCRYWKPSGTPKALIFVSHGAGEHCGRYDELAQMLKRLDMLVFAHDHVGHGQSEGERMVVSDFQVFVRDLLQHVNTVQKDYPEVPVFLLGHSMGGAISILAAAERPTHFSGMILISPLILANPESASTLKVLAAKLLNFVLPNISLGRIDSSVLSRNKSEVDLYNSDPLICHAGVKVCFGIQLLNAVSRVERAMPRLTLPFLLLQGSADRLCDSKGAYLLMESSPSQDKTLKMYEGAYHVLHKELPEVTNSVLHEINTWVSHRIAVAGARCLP
Protocol: as §1
Procedure was followed as described for hMAGL.

ΔTM rat FAAH = molecular target: T4, ΔTM rat FAAH (Rattus norvegicus, UniProt P97612); assay: Fluorescent assay protocol for ΔTM rat FAAH (AAMCA substrate); settings: 15 min preincubation, read-out: IC50 rFAAH
T4 construct: Preparation of Transmembrane Domain-Deleted Rat FAAH (ΔTM rFAAH); made in house; host or cells: E. coli
T4 sequence (P97612 30-579 limits assumed): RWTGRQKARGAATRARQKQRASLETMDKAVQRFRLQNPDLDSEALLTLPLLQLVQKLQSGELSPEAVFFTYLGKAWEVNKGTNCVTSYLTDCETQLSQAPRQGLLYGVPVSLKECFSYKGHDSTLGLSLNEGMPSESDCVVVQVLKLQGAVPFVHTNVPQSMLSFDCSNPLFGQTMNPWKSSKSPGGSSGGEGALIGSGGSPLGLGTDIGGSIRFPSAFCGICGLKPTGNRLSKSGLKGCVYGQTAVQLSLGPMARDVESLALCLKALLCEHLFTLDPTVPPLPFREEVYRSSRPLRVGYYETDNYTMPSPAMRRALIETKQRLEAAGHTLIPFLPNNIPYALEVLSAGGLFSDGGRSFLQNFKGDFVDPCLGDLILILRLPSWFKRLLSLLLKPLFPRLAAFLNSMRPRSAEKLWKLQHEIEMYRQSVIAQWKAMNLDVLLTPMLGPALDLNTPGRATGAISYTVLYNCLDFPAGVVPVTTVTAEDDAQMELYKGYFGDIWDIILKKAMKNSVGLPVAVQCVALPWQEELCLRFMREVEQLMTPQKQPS
Protocol: Procedure was followed as described for hMAGL, except that arachidonoyl-methyl coumarin amide (AAMCA) was used as fluorigenic substrate. […] For the screening assay, 3 concentrations (1 μM, 10 μM, and 100 μM) of test compounds, 15 μg of ΔTM rFAAH and assay buffer were pre-incubated for 15 min at 25° C. […] The fluorescence reading at the 3 hour time point (linear enzyme kinetics) was used to calculate percent inhibition based on control assays without inhibitor present. All FAAH assays were performed in triplicate for each inhibitor concentration, and IC50 values determined using Prizm software (GraphPad Software, Inc.).

Structure (SMILES) | IC50 (Human MAGL (hMAGL)) [µM] | IC50 (Human FAAH (MBPΔTMhFAAH)) [µM] | IC50 (Rat MAGL (rMAGL)) [µM] | IC50 (ΔTM rat FAAH) [µM]
O=C(N1CCN(C(c2ccc(F)cc2)c2ccc(F)cc2)CC1)n1cnc(-c2ccccc2)c1 [Example 29, (4-(bis(4-fluorophenyl)methyl)piperazin-1-yl)(4-phenyl-1H-imidazol-1-yl)methanone] | > 1 | 0.11 to 1 | > 1 | 0.11 to 1
O=C(N1CCN(C(c2ccccc2)c2ccccc2)CC1)n1cnc(-c2ccccc2)c1 [Example 30, (4-benzhydrylpiperazin-1-yl)(4-phenyl-1H-imidazol-1-yl)methanone] | > 1 | 0.11 to 1 | > 1 | > 1
O=C(N1CCN(C(c2ccccc2)c2ccccc2)CC1)n1nnnc1Cc1ccccc1 [Example 31, (4-benzhydrylpiperazin-1-yl)(5-benzyl-1H-tetrazol-1-yl)methanone] | > 1 | 0.01 to 0.1 | > 1 | 0.01 to 0.1
O=C(N1CCN(C(c2ccc(F)cc2)c2ccc(F)cc2)CC1)n1nnnc1Cc1ccccc1 [Example 32, (5-benzyl-1H-tetrazol-1-yl)(4-(bis(4-fluorophenyl)methyl)piperazin-1-yl)methanone] | > 1 | 0.11 to 1 | > 1 | 0.11 to 1
COC(=O)c1ncn(C(=O)N2CCC(OC(c3ccc(F)cc3)c3ccc(F)cc3)CC2)n1 [Example 33, (3-(Carbomethoxy)-1H-1,2,4-triazol-1-yl)(4-(bis(4-fluorophenyl)methyoxy)pipe-ridin-1 yl)methanone] | > 1 | > 1 | > 1 | > 1
O=C1CC2(CCC(C(=O)n3cnc(Br)c3)CC2)Oc2ccccc21 (centres unmarked) [Example 34, 4′-(4-bromo-1H-imidazole-1-carbonyl)spiro[chromane-2,1′-cyclohexan]-4-one] | > 1 | 0.01 to 0.1 | > 1 | 0.01 to 0.1
CC(c1ccccc1)N1CCN(C(=O)Oc2cccc(C#N)c2)CC1 (centres unmarked) [Example 36, 3-cyanophenyl 4-(1-phenylethyl)piperazine-1-carboxylate] | > 1 | 0.01 to 0.1 | > 1 | 0.01 to 0.1
N#Cc1cc(O)cc(OC(=O)N2CCN(C(c3ccccc3)c3ccccc3)CC2)c1 [Example 38, 3-cyano-5-hydroxyphenyl 4-benzhydrylpiperazine-1-carboxylate] | > 1 | 0.11 to 1 | > 1 | 0.11 to 1
O=C(Oc1cccc(Cl)n1)N1CCN(C(c2ccccc2)c2ccccc2)CC1 [Example 39, 6-chloropyridin-2-yl 4-benzhydrylpiperazine-1-carboxylate] | > 1 | 0.11 to 1 | > 1 | 0.11 to 1
N#Cc1ccnc(OC(=O)N2CCN(C3c4ccccc4-c4ccccc43)CC2)c1 [Example 42, 4-cyanopyridin-2-yl 4-(9H-fluoren-9-yl)piperazine-1-carboxylate] | 0.01 to 0.1 | > 1 | 0.01 to 0.1 | > 1
N#Cc1cccnc1OC(=O)N1CCN(C2c3ccccc3-c3ccccc32)CC1 [Example 43, 3-cyanopyridin-2-yl 4-(9H-fluoren-9-yl)piperazine-1-carboxylate] | 0.01 to 0.1 | > 1 | 0.01 to 0.1 | > 1
N#Cc1ccc(F)c(OC(=O)N2CCC(Cc3ccccc3)CC2)c1 [Example 45, 5-Cyano-2-fluorophenyl 4-benzylpiperidine-1-carboxylate] | > 1 | 0.01 to 0.1 | > 1 | 0.01 to 0.1
N#Cc1cccc(OC(=O)N2CCC(=C(c3ccccc3)c3ccccc3)CC2)c1 [Example 47, 3-cyanophenyl 4-(diphenylmethylene)piperidine-1-carboxylate] | > 1 | 0.01 to 0.1 | > 1 | 0.01 to 0.1
COC(=O)c1cccc(OC(=O)N2CCC(=C(c3ccccc3)c3ccccc3)CC2)c1 [Example 48, 3-(methoxycarbonyl)phenyl 4-(diphenylmethylene)piperidine-1-carboxylate] | > 1 | 0.01 to 0.1 | > 1 | 0.11 to 1
N#Cc1cccc(OC(=O)N2CCC(OC(c3ccc(Cl)cc3)c3cccnc3Cl)CC2)c1 (centres unmarked) [Example 53, 3-cyanophenyl 4-((4-chlorophenyl)(2-chloropyridin-3-yl)methoxy)piperidine-1-carboxylate] | 0.01 to 0.1 | 0.01 to 0.1 | 0.01 to 0.1 | 0.01 to 0.1
O=C(Oc1cccc(Cl)n1)N1CCC(C(c2ccccc2)c2ccccc2)CC1 [Example 54, 6-Chloropyridin-2-yl 4-(benzhydryl)piperidine-1-carboxylate] | 0.11 to 1 | 0.01 to 0.1 | 0.11 to 1 | 0.11 to 1
COC(=O)c1cccc(OC(=O)N2CCC(OC(c3ccccc3)c3ccccc3)CC2)c1 [Example 55, 3-(methoxycarbonyl)phenyl 4-(benzhydryloxy)piperidine-1-carboxylate] | 0.01 to 0.1 | 0.01 to 0.1 | 0.11 to 1 | 0.01 to 0.1
